Results on 8 molecules are retold here after PubChem BioAssay AID1259407 (Chemical Carcinogenesis Research Information System (CCRIS), 2018).

The source made the active and inactive calls. How the calls were made is not given here.

This series deals with CCRIS mutagenicity, Ames/micronucleus/aberration tests. Description: CCRIS mutagenicity studies.
Setting [1] is: Test System: AMES SALMONELLA TYPHIMURIUM, Strain/Indicator: TA98, Metabolic Activation: HAMSTER, LIVER, S-9, AROCLOR 1254, Method: PREINCUBATION
Where [2] appears, read: Test System: AMES SALMONELLA TYPHIMURIUM, Strain/Indicator: TA98, Metabolic Activation: NONE, Method: PREINCUBATION
[3] abbreviates: Test System: AMES SALMONELLA TYPHIMURIUM, Strain/Indicator: TA98, Metabolic Activation: RAT, LIVER, S-9, AROCLOR 1254, Method: PREINCUBATION
The mark [4] stands for this setting: Test System: AMES SALMONELLA TYPHIMURIUM, Strain/Indicator: TA100, Metabolic Activation: HAMSTER, LIVER, S-9, AROCLOR 1254, Method: PREINCUBATION
Where [5] appears, read: Test System: AMES SALMONELLA TYPHIMURIUM, Strain/Indicator: TA100, Metabolic Activation: NONE, Method: PREINCUBATION
Where [6] appears, read: Test System: AMES SALMONELLA TYPHIMURIUM, Strain/Indicator: TA100, Metabolic Activation: RAT, LIVER, S-9, AROCLOR 1254, Method: PREINCUBATION
Where [7] appears, read: Test System: AMES SALMONELLA TYPHIMURIUM, Strain/Indicator: TA1535, Metabolic Activation: HAMSTER, LIVER, S-9, AROCLOR 1254, Method: PREINCUBATION
Where [8] appears, read: Test System: AMES SALMONELLA TYPHIMURIUM, Strain/Indicator: TA1535, Metabolic Activation: NONE, Method: PREINCUBATION
[9] abbreviates: Test System: AMES SALMONELLA TYPHIMURIUM, Strain/Indicator: TA1535, Metabolic Activation: RAT, LIVER, S-9, AROCLOR 1254, Method: PREINCUBATION
[10] abbreviates: Test System: AMES SALMONELLA TYPHIMURIUM, Strain/Indicator: TA1537, Metabolic Activation: HAMSTER, LIVER, S-9, AROCLOR 1254, Method: PREINCUBATION
[11] abbreviates: Test System: AMES SALMONELLA TYPHIMURIUM, Strain/Indicator: TA1537, Metabolic Activation: NONE, Method: PREINCUBATION
The mark [12] stands for this setting: Test System: AMES SALMONELLA TYPHIMURIUM, Strain/Indicator: TA1537, Metabolic Activation: RAT, LIVER, S-9, AROCLOR 1254, Method: PREINCUBATION
[13] abbreviates: Test System: AMES SALMONELLA TYPHIMURIUM, Strain/Indicator: TA98, Metabolic Activation: NONE, Method: STANDARD PLATE.
The mark [14] stands for this setting: Test System: AMES SALMONELLA TYPHIMURIUM, Strain/Indicator: TA98, Metabolic Activation: RAT, LIVER, S-9, AROCLOR 1254, Method: STANDARD PLATE.
The mark [15] stands for this setting: Test System: AMES SALMONELLA TYPHIMURIUM, Strain/Indicator: TA100, Metabolic Activation: NONE, Method: STANDARD PLATE.
The mark [16] stands for this setting: Test System: AMES SALMONELLA TYPHIMURIUM, Strain/Indicator: TA1538, Metabolic Activation: NONE, Method: STANDARD PLATE.
Where [17] appears, read: Test System: AMES SALMONELLA TYPHIMURIUM, Strain/Indicator: TA100, Metabolic Activation: RAT, LIVER, S-9, AROCLOR 1254, Method: STANDARD PLATE.
The mark [18] stands for this setting: Test System: AMES SALMONELLA TYPHIMURIUM, Strain/Indicator: TA1537, Metabolic Activation: RAT, LIVER, S-9, AROCLOR 1254, Method: STANDARD PLATE.
Where [19] appears, read: Test System: MOUSE LYMPHOMA, Strain/Indicator: L5178Y (TK+/TK-), Metabolic Activation: NONE, Method: SUSPENSION/PLATE.

As to `C=CCOC(=O)c1ccccc1C(=O)OCC=C`, the mutagenic call runs as follows: (End Point: IN VITRO CHROMOSOMAL ABERRATIONS, Test System: CHO CELLS, Metabolic Activation: RAT, LIVER, S-9, AROCLOR 1254) “active; positive; weak response”; under setting [1], “inactive; negative”; under setting [2], “inactive; negative”; (Test System: AMES SALMONELLA TYPHIMURIUM, Strain/Indicator: TA98, Metabolic Activation: RAT LIVER S-9, PHENOBARBITAL AND BETA-NAPHTHOFLAVONE, Method: PREINCUBATION) “inactive; negative”; under setting [3], “inactive; negative”; under setting [4], “inactive; negative”. Moreover, the mutagenic call is “inactive; negative” under setting [5]; “inactive; negative” (Test System: AMES SALMONELLA TYPHIMURIUM, Strain/Indicator: TA100, Metabolic Activation: RAT LIVER S-9, PHENOBARBITAL AND BETA-NAPHTHOFLAVONE, Method: PREINCUBATION); “inactive; negative” under setting [6]; “inactive; negative” under setting [7]; “inactive; negative” under setting [8]; “inactive; negative” (Test System: AMES SALMONELLA TYPHIMURIUM, Strain/Indicator: TA1535, Metabolic Activation: RAT LIVER S-9, PHENOBARBITAL AND BETA-NAPHTHOFLAVONE, Method: PREINCUBATION). The mutagenic call is “inactive; negative” under setting [9]; “inactive; negative” under setting [10]; “inactive; negative” under setting [11]; “inactive; negative” (Test System: AMES SALMONELLA TYPHIMURIUM, Strain/Indicator: TA1537, Metabolic Activation: RAT LIVER S-9, PHENOBARBITAL AND BETA-NAPHTHOFLAVONE, Method: PREINCUBATION); “inactive; negative” under setting [12]; “inactive; negative” (Test System: E.COLI, Strain/Indicator: WP2UVRA/PKM101, Metabolic Activation: NONE, Method: PREINCUBATION). Under “Test System: E.COLI, Strain/Indicator: WP2UVRA/PKM101, Metabolic Activation: RAT LIVER S-9, PHENOBARBITAL AND BETA-NAPHTHOFLAVONE, Method: PREINCUBATION”, the mutagenic call is “inactive; negative”.

As to `COc1cccc2c1[C@H](CO)N1[C@@H](C#N)[C@@H]3C[C@@H](C(=O)O)[C@H]([C@@H]1C2)N3C`, the mutagenic call is, setting by setting: (Test System: Mouse lymphoma, Strain/Indicator: L5178Y (tk+/tk-), Metabolic Activation: None, Method: Suspension/plate) “active; positive”; (Test System: Mouse lymphoma, Strain/Indicator: L5178Y (tk+/tk-), Metabolic Activation: Rat, Liver, S-9, Aroclor 1254, Method: Suspension/plate) “active; positive”.

With `CC[C@@]1(O)C[C@H](O)c2c(cc3c(c2O)C(=O)c2c(O)cccc2C3=O)[C@H]1C(=O)OC`, the mutagenic call is “active; positive” under setting [13], “active; positive” under setting [14], “inactive; negative” under setting [15] and “inactive; negative” under setting [16].

On to `O=S1(=O)OC(c2cc(Br)c(O)c(Br)c2)(c2cc(Br)c(O)c(Br)c2)c2ccccc21`, for which the mutagenic call was “inactive; negative” under setting [13]; “inactive; negative” under setting [14]; “inactive; negative” under setting [15]; “inactive; negative” under setting [17]; “inactive; negative” (Test System: AMES SALMONELLA TYPHIMURIUM, Strain/Indicator: TA1535, Metabolic Activation: NONE, Method: STANDARD PLATE); “inactive; negative” (Test System: AMES SALMONELLA TYPHIMURIUM, Strain/Indicator: TA1535, Metabolic Activation: RAT, LIVER, S-9, AROCLOR 1254, Method: STANDARD PLATE). The mutagenic call is, setting by setting: (Test System: AMES SALMONELLA TYPHIMURIUM, Strain/Indicator: TA1537, Metabolic Activation: NONE, Method: STANDARD PLATE) “inactive; negative”; under setting [18], “inactive; negative”; under setting [16], “inactive; negative”; (Test System: AMES SALMONELLA TYPHIMURIUM, Strain/Indicator: TA1538, Metabolic Activation: RAT, LIVER, S-9, AROCLOR 1254, Method: STANDARD PLATE) “inactive; negative”; under setting [19], “inactive; negative”; (Test System: MOUSE LYMPHOMA, Strain/Indicator: L5178Y (TK+/TK-), Metabolic Activation: RAT, LIVER, S-9, AROCLOR 1254, Method: SUSPENSION/PLATE) “inactive; negative”.

As to `OC1C=Cc2c(cc3ccc4cccc5ccc2c3c45)C1` (centres undefined), the mutagenic call under setting [14] was “active; positive”.

Take `CC1=C[C@@H]2c3cccc4[nH]cc(c34)C[C@H]2N(C)C1`: the mutagenic call is “active; positive” under setting [14], “inactive; negative” under setting [15], “active; positive” under setting [17] and “inactive; negative” under setting [18].

For the molecule `CCCCN(CCC(=O)OC)N=O`, the mutagenic call (Test System: AMES SALMONELLA TYPHIMURIUM, Strain/Indicator: TA1535, Metabolic Activation: RAT, LIVER, S-9, KC500 OR PHENOBARBITAL, Method: LIQUID SUSPENSION) is “active; positive”.

For `O=C(O)C1C(C(=O)O)C2(Cl)C(Cl)=C(Cl)C1(Cl)C2(Cl)Cl` (centres undefined), the mutagenic call (End Point: IN VITRO CHROMOSOMAL ABERRATIONS, Test System: CHINESE HAMSTER LUNG FIBROBLAST CELLS (CHL/IU), Metabolic Activation: RAT, LIVER, S-9, PHENOBARBITAL AND 5,6-BENZOFLAVONE) is “active; positive (structural changes)”; the mutagenic call under setting [1] is “inactive; negative”; the mutagenic call under setting [2] was “inactive; negative”; the mutagenic call under setting [3] was “inactive; negative”; the mutagenic call under setting [4] was “inactive; negative”; the mutagenic call under setting [5] is “inactive; negative”. In addition, the mutagenic call is, setting by setting: under setting [6], “inactive; negative”; under setting [7], “inactive; negative”; under setting [8], “inactive; negative”; under setting [9], “inactive; negative”; under setting [10], “inactive; negative”; under setting [11], “inactive; negative”. Also, the mutagenic call by setting is: under setting [12], “inactive; negative”; (Test System: MOUSE LYMPHOMA, Strain/Indicator: L5178Y (TK+/TK-), Metabolic Activation: NONE, Method: MICROWELL) “active; positive”; under setting [19], “active; positive”; (Test System: MOUSE LYMPHOMA, Strain/Indicator: L5178Y (TK+/TK-), Metabolic Activation: S-9, Method: MICROWELL) “active; positive”.
